Laboratory results as given in ChEMBL document CHEMBL1150256, “Kahalalides V-Y isolated from a Hawaiian collection of the sacoglossan mollusk Elysia rufescens” (2008).
The source made the active and inactive calls. No cut-off for these calls is given here.

Legend:
PC-3 = assay: Growth inhibition of human PC3 cells; type: functional
DU-145 = assay: Growth inhibition of human DU145 cells; type: functional
Mus musculus = assay: Antidepressant activity in Swiss Webster mouse at 0 to10 mg/kg, ip by forced swim test; type: functional, organism-based

| SMILES | growth inhibition (GI) (PC-3) [%] | growth inhibition (GI) (DU-145) [%] | Activity (Mus musculus) |
| --- | --- | --- | --- |
| C/C=C1\NC(=O)[C@H](Cc2ccccc2)NC(=O)[C@@H](C(C)C)NC(=O)[C@@H]([C@H](C)CC)NC(=O)[C@H](NC(=O)[C@H](NC(=O)[C@H](CCCN)NC(=O)[C@H]2CCCN2C(=O)[C@H](NC(=O)[C@@H](NC(=O)[C@@H](NC(=O)[C@H](NC(=O)CCCC(C)C)C(C)C)[C@@H](C)O)C(C)C)C(C)C)[C@H](C)CC)[C@H](C)OC(=O)[C@H](C(C)C)NC1=O [KAHALALIDE F] | 40 | 40 | – |
| CC(C)CCC[C@H]1CC(=O)N[C@H](Cc2c[nH]c3ccccc23)C(=O)N2CCC[C@H]2C(=O)N[C@@H](CCCNC(=N)N)C(=O)O1 | – | – | inactive |
